We go through 13 compounds from US6376512B1, “Therapeutic uses of quinoline derivatives” (Aventis Pharma Deutschland GmbH, priority 1997, dated 2002).

“Also recorded” adds a separate entry of the source. Like-named read-outs stand apart in the source and are kept apart here. A value given as a limit tells only on which side of the number the result lay.

Data set [1] has as its target T1, LTD4 receptor (Homo sapiens, UniProt Q9Y271).
T1 construct: endogenous in cells
T1 sequence (Q9Y271 1-337): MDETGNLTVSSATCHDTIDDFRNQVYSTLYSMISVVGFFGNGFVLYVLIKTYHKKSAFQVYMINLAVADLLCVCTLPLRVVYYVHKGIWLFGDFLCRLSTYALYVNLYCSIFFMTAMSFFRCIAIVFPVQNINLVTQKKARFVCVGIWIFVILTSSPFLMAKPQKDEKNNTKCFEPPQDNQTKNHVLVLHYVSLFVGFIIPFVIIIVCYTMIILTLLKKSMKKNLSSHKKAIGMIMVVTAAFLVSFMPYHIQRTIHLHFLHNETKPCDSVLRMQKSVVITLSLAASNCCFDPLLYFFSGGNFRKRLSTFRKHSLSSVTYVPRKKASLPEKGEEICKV
The experiment in a line: LTD4 receptor binding in THP-1 cells. The note with it: for Kb: THP-1 cells, read-out: LTD4 Binding (Kb for binding of compound to the LTD4 receptor).

The next data set concerns human preadipocytes. The experiment in a line: Adipocyte differentiation of primary human pre-adipocyte cultures (oil red-O). Format: cell-based. The settings on record: for EC50: Homo sapiens, Adipocyte, human adipocyte differentiation in presence of insulin and dexamethasone. The protocol: Evaluation of the capacity to induce differentiation of primary human pre-adipocyte cultures to adipocytes.
The capacity of Compound VI to induce adipocyte differentiation of primary human pre-adipocyte cultures was evaluated and compared directly to Troglitazone®.
Human subcutaneous preadipocytes were isolated from adipose tissue obtained by liposuction surgery. Preadipocytes were inoculated at high density in preadipocyte medium (DME/F-10, 1:1, (v/v) containing 10% fetal calf serum). Cells were kept in preadipocytic medium overnight for attachment. […] The basal medium, which was used as the negative control, contained DME/F-10, biotin (33 μM), pantothenate (17 μM), insulin (100 nM), and dexamethasone (1 μM). The culture was maintained for 14 days with the compound treatment during the first five days. At the end of the culture, cells were fixed in 5% formalin and stained with oil red-O dye. The dye was extracted by isopropanol and quantitated by measuring the optical density at 500 nm.

The target in data set [2] is T2, LTD4 receptor (Cavia porcellus, UniProt Q2NNR5).
T2 sequence (Q2NNR5 1-340): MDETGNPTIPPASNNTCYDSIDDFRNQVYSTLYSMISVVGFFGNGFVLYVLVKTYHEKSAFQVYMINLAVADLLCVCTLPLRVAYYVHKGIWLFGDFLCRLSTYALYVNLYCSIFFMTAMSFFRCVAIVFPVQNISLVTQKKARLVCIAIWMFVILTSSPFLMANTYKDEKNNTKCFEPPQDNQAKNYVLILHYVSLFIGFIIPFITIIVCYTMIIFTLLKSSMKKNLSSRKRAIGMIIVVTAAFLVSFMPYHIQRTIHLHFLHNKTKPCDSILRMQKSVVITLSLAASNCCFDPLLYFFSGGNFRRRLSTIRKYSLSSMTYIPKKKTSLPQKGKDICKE
The experiment in a line: LTD4 binding, guinea pig receptor. The note with it: read-out: Kd, antagonist of the guinea pig LTD4 receptor.

The target of another data set is T3, PPAR-γ (Homo sapiens, UniProt P37231).
T3 sequence (P37231 1-505): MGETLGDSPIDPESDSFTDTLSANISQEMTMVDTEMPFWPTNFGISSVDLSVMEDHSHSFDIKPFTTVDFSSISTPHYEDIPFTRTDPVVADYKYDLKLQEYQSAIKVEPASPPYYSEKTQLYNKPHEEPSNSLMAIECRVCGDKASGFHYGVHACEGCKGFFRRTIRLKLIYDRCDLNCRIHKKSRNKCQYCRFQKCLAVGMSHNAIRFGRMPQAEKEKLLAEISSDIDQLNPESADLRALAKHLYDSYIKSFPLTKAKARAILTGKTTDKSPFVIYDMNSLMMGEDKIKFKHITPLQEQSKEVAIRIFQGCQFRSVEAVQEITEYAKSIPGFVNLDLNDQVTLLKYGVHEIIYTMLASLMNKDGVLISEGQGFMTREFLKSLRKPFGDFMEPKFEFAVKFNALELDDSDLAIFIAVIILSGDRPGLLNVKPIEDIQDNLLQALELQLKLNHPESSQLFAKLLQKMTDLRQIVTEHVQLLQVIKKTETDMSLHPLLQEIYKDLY
The experiment in a line: PPAR-γ ligand receptor binding. The note with it: initial results.

The subject of another data set is db/db mice. The data set can be described thus: Oral (in-feed) efficacy in db/db mice, genetic model of type II diabetes. Format: in vivo, mouse. The protocol: An in-feed study in this genetic model of type II diabetes was performed. […] The compound of formula VI and Troglitazone® were studied in a genetic model of diabetes (db/db mice). A total of 70 female db/db mice (C57Bl/Ks db+/+; Jackson Labs, Maine), 3 months of age, received either meal chow only (rodent chow # 5001), 50 or 150 mg/kg/day of the compound of formula VI and 50 or 150 mg/kg/day of Troglitazone® mixed with the food. Six animals were sacrificed on Day 0 to obtain baseline values, the remaining 64 animals were randomly distributed into 5 groups. On days 0, 8, 12 and 16 whole blood samples were taken via the tail vein and blood glucose was determined (in duplicate) using the One Touch® gluco-meter. On Day 16, animals were anesthetized using pentobarbital, blood was drawn into EDTA tubes and the following organs were removed: heart, liver, brain, white and brown adipose tissue and the tibia. Plasma was prepared and kept frozen until samples were analyzed for glucose, free fatty acids, insulin and triglycerides. [table] Plasma was analyzed for glucose, triglycerides, free fatty acids and insulin. The latter two methods were slightly modified to use smaller amounts of plasma. Glucose Analysis. Plasma glucose was measured with a Sigma Chemicals Diagnostic kit (#315-500). Triglyceride Analysis. Plasma triglycerides was measured with a Sigma Chemicals Diagnostic kit (#339-500P). Insulin Analysis. Plasma insulin was measured using a radioimmunoassay (RIA) kit from Linco Research Inc. (#RI-13K). This kit was modified slightly using 10 μl of plasma. This kit utilizes an antibody made specifically against rat insulin. The cross-reactivity of this antibody with mouse insulin is 100 percent. Free Fatty Acid Analysis. Plasma free fatty acids were measured using a kit obtained from Wako Chemicals Inc. (NEFA-C; #994-75409). This kit utilizes an in vitro enzymatic colorimetric method for the quantitation of non-esterified fatty acids in serum or plasma. This method relies upon the acylation of coenzyme A by the fatty acids in the presence of added acyl-CoA synthetase. This method was modified slightly to utilize 5 μl of plasma and was performed in a 96-well format (M. Johnson & J. Peters, J. Animal Science 71:753-756, 1993).

The compound `COc1cc(C(=O)O)ccc1OCc1cccc(OCc2ccc3ccccc3n2)c1` [Example 15, 3-methoxy-4-(3-(2-quinolinylmethyloxy)benzyloxy)benzoic acid] had a melting point of 188 to 190 °C.

For the compound `c1cc(OCc2ccc(-c3nnn[nH]3)cc2)cc(OCc2ccc3ccccc3n2)c1` [Example 27, 5-(4-(3-(2quinolinylmethyloxy)phenoxy-methyl)phenyl)tetrazole], the melting point was 91 °C (dec.).

The compound `c1ccc2nc(COc3ccc(COc4ccc(Cc5nnn[nH]5)cc4)cc3)ccc2c1` [Example 12, 5-[4(4-(2-quinolinylmethyloxy)benzyloxy)benzyl]tetrazole] yielded a melting point of 179 to 181 °C.

With `COC(=O)c1cccc(COc2cccc(OCc3ccc4ccccc4n3)c2)c1` [Example 19, methyl 3-(3-(2-quinolinylmethyloxy)phenoxymethyl)benzoate], the melting point fell in the range of 93 to 94 °C.

Take `c1ccc2nc(COc3ccc(COc4ccc(-c5nnn[nH]5)cc4)cc3)ccc2c1` [Example 11, 5-[4-(4-(2-quinolinylmethyloxy)benzyloxy)phenyl]tetrazole]: the melting point is 210 to 213 °C.

As for `Cc1c(C)c2c(c(C)c1O)CCC(C)(COc1ccc(CC3SC(=O)NC3=O)cc1)O2` (stereo not shown) [Troglitazone ®, Troglitazone, reference compound], the Kb at LTD4 receptor [1] was over 10000 nM. Moreover, in the data set on human preadipocytes (serum free medium), the concentration for a half-maximal effect (EC50) is over 3000 nM.

In turn, `N#Cc1cccc(OCc2cccc(OCc3ccc4ccccc4n3)c2)c1` [Example 7, 3-[3-(2-quinolinylmethyloxy)benzyloxy]benzonitrile] returned a melting point of 86 to 87 °C.

`COC(=O)c1ccc(OCc2cccc(OCc3ccc4ccccc4n3)c2)c(OC)c1` [Example 14, methyl 3-methoxy-4-(3-(2quinolinylmethyloxy)benzyloxy)-benzoate] displayed a melting point of 100 to 101 °C.

Regarding `c1cc(COc2ccc(OCc3ccc4ccccc4n3)cc2)cc(OCc2nnn[nH]2)c1` [Example 32, 5-(3-(4-(2-quinolinylmethyloxy)phenoxymethyl)phenoxymethyl)tetrazole], the melting point is 131 to 132 °C.

As for `c1ccc(Cc2nn[nH]n2)c(COc2ccc(OCc3ccc4ccccc4n3)cc2)c1` [Compound VI, 5-[2-(4-(2-quinolinylmethoxy)phenoxymethyl)benzyl]tetrazole], the Kd on LTD4 receptor [2] came to 3 nM. Moreover, the “binding to the LTD4 receptor (in words)” value on LTD4 receptor [1] is given as “binds tightly”. Moreover, the Kb on LTD4 receptor [1] (in serum) was found to be 88 nM; on LTD4 receptor [1] it was 38 nM. In addition, the “potency as PPAR-γ ligand receptor binder relative to Troglitazone” value on PPAR-γ is “more potent PPAR-γ ligand receptor binder than Troglitazone®”. In addition, the 50% effective concentration (EC50) with human preadipocytes (in serum) lay in the range of 1000 to 3000 nM; in the data set on human preadipocytes (serum free medium) it was 100 to 300 nM. Also, the “activity in the differentiation assay” value with human preadipocytes (human preadipocytes) is reported as “active”. For the same compound, the “potency in the differentiation assay relative to Troglitazone” value with human preadipocytes (human preadipocytes) was “better potency than Troglitazone®”. In addition, the lowering plasma glucose entry with db/db mice (db/db mice, 50 or 150 mg/kg/day mixed with the food, Day 16, FIG. 3A) is recorded as “effective”. For the same compound, in the data set with db/db mice (db/db mice, 50 or 150 mg/kg/day mixed with the food, Day 16, FIG. 3B), the “lowering plasma free fatty acids” value is reported as “effective”. Besides, the lowering plasma triglycerides entry in the data set with db/db mice (db/db mice, 50 or 150 mg/kg/day mixed with the food, Day 16, FIG. 3C) is on record as “effective”. The lowering plasma insulin result in the data set with db/db mice (db/db mice, 50 or 150 mg/kg/day mixed with the food, Day 16, FIG. 3D) is listed as “effective”. Further, the “efficacy relative to Troglitazone” value in the data set on db/db mice (db/db mice, same doses, listed as compound of formula VI) is listed as “significantly better efficacy; also recorded: more efficacious than Troglitazone®”. Also, the “potency relative to Troglitazone in lowering glucose” value in the data set on db/db mice (db/db mouse, in-feed administration, FIG. 4) is listed as “at least three times the potency of Troglitazone®”.

`O=C(O)c1cccc(COc2cccc(OCc3ccc4ccccc4n3)c2)c1` [Example 20, 3-(3-(2-quinolinylmethyloxy)phenoxymethyl)benzoic acid] came in with a melting point of 149 to 151 °C.

For `c1cc(COc2cccc(-c3nnn[nH]3)c2)cc(OCc2ccc3ccccc3n2)c1` [Example 10, 5-[3-(3-(2-quinolinylmethyloxy)benzyloxy)phenyl]tetrazole], the melting point was 169 to 172 °C.

In turn, `N#Cc1ccc(COc2cccc(OCc3ccc4ccccc4n3)c2)cc1` [Example 26, 4-(3-(2quinolinylmethyloxy)phenoxy-methyl)benzonitrile] had a melting point of 112.5 °C.

By melting point is commonly meant the temperature, or range, at which the solid turns liquid. By EC50 is commonly meant the concentration that produces a half-maximal response. Broadly, the Kd is the equilibrium constant for the complex coming apart.
